{"source": "patent US10752601B2", "about": "“Crystal form and salt of 3-(3,5-dichloro-4-hydroxybenzoyl)-1,1-dioxo-2,3-dihydro-1,3-benzothiazole” (FUJI YAKUHIN CO., LTD., priority 2017, dated 2020)", "key": {"[1]": {"assay": "Test Example 1 (flowability and floodability), Carr index table", "assay_type": "physicochemical", "method": "Test Example 1 (flowability and floodability): the compressibility was calculated by measuring bulk density and tap density of the crystals in Examples 1 and 2, and moreover, their dynamic bulk density, angle of repose, angle of spatula, uniformity, cohesion, angle of fall, angle of difference, and degree of dispersion were found, and flowability and floodability were evaluated using the Carr index table. (Table 1)."}, "[2]": {"assay": "Test Example 2 (absorption properties at time of oral administration to rat)", "assay_type": "in vivo", "details": "single oral, mean ± SD (n = 4); for concentration at 1 hr: read-out: Unchanged compound level in blood plasma 1 hr; for concentration at 2 hr: read-out: Unchanged compound level in blood plasma 2 hr; for concentration at 4 hr: read-out: Unchanged compound level in blood plasma 4 hr; for concentration at 8 hr: read-out: Unchanged compound level in blood plasma 8 hr; for concentration at 24 hr: read-out: Unchanged compound level in blood plasma 24 hr; for AUC(0-t): read-out: AUC0-24 hr", "method": "A test substance suspended in a 0.5% solution of methylcellulose was orally administered to a male CD (SD) rat (CHARLES RIVER LABORATORIES JAPAN, INC., 7 weeks old when used) in a dose of 30 and 300 mg/kg, and blood was then collected after 0.25, 0.5, 1, 2, 4, 8, and 24 hours. The level of unchanged compound in blood plasma was measured by HPLC (Table 2, Table 3), and pharmacokinetic parameters were calculated and absorption was evaluated (Table 4)."}, "[3]": {"details": "male, CD (SD), plasma, po, 30 mg/kg, 30 mg/kg"}, "[4]": {"details": "male, CD (SD), plasma, po, 300 mg/kg, 300 mg/kg"}}, "note": "Read-outs that look alike come from different tables or passages of the source."}
{"smiles": "O=C(c1cc(Cl)c(O)c(Cl)c1)N1CS(=O)(=O)c2ccccc21", "note": "[Example 1, 3-(3,5-dichloro-4-hydroxybenzoyl)-1,1-dioxo-2,3-dihydro-1,3-benzothiazole]", "values": [{"measurement": "Floodability index", "setting": "[1]; after pulverization", "value": 43}, {"measurement": "Flowability index", "setting": "[1]; after pulverization", "value": 36}, {"measurement": "concentration at 1 hr", "setting": "[2]; [3]", "value": "49.8 ± 22.7", "unit": "µg/mL"}, {"measurement": "concentration at 2 hr", "setting": "[2]; [3]", "value": "33 ± 11", "unit": "µg/mL"}, {"measurement": "concentration at 4 hr", "setting": "[2]; [3]", "value": "26.6 ± 13", "unit": "µg/mL"}, {"measurement": "concentration at 8 hr", "setting": "[2]; [3]", "value": "20.4 ± 5.53", "unit": "µg/mL"}, {"measurement": "concentration at 24 hr", "setting": "[2]; [3]", "value": "1.16 ± 0.45", "unit": "µg/mL"}, {"measurement": "AUC(0-t)", "setting": "[2]; [3]", "value": "412 ± 123", "unit": "µg·h/mL"}, {"measurement": "Cmax", "setting": "[2]; male, CD (SD), plasma, po, 30 mg/kg, 30 mg/kg, read-out: Cmax", "value": "59.2 ± 29.5", "unit": "µg/mL"}, {"measurement": "Unchanged compound level in blood plasma 0.25 hr", "setting": "[2]; 30 mg/kg", "value": "38.18 ± 23.24", "unit": "µg/mL"}, {"measurement": "Unchanged compound level in blood plasma 0.5 hr", "setting": "[2]; 30 mg/kg", "value": "58.51 ± 30.81", "unit": "µg/mL"}, {"measurement": "Tmax", "setting": "[2]; 30 mg/kg", "value": "0.63 ± 0.25", "unit": "h"}, {"measurement": "Unchanged compound level in blood plasma 0.25 hr", "setting": "[2]; 300 mg/kg", "value": "174.78 ± 19.03", "unit": "µg/mL"}, {"measurement": "Unchanged compound level in blood plasma 0.5 hr", "setting": "[2]; 300 mg/kg", "value": "275.88 ± 42.51", "unit": "µg/mL"}, {"measurement": "Unchanged compound level in blood plasma 1 hr", "setting": "[2]; 300 mg/kg", "value": "275.53 ± 30.24", "unit": "µg/mL"}, {"measurement": "Unchanged compound level in blood plasma 2 hr", "setting": "[2]; 300 mg/kg", "value": "298.88 ± 35.19", "unit": "µg/mL"}, {"measurement": "Unchanged compound level in blood plasma 4 hr", "setting": "[2]; 300 mg/kg", "value": "285.55 ± 26.38", "unit": "µg/mL"}, {"measurement": "Unchanged compound level in blood plasma 8 hr", "setting": "[2]; 300 mg/kg", "value": "267.85 ± 25.73", "unit": "µg/mL"}, {"measurement": "Unchanged compound level in blood plasma 24 hr", "setting": "[2]; 300 mg/kg", "value": "73.31 ± 27.54", "unit": "µg/mL"}, {"measurement": "AUC0-24 hr", "setting": "[2]; 300 mg/kg", "value": "4923.74 ± 547.44", "unit": "µg·h/mL"}, {"measurement": "Cmax", "setting": "[2]; 300 mg/kg", "value": "307.28 ± 26.20", "unit": "µg/mL"}, {"measurement": "Tmax", "setting": "[2]; 300 mg/kg", "value": "4.00 ± 2.83", "unit": "h"}]}
{"smiles": "O=C(c1cc(Cl)c(O)c(Cl)c1)N1CS(=O)(=O)c2ccccc21", "note": "[Example 2, 3-(3,5-dichloro-4-hydroxybenzoyl)-1,1-dioxo-2,3-dihydro-1,3-benzothiazole]", "values": [{"measurement": "Floodability index", "setting": "[1]; after pulverization", "value": 49.5}, {"measurement": "Flowability index", "setting": "[1]; after pulverization", "value": 42}, {"measurement": "Floodability index", "setting": "[1]; before pulverization", "value": 57.5}, {"measurement": "Flowability index", "setting": "[1]; before pulverization", "value": 65}, {"measurement": "concentration at 1 hr", "setting": "[2]; [4]", "value": "140 ± 20.3", "unit": "µg/mL"}, {"measurement": "concentration at 2 hr", "setting": "[2]; [4]", "value": "264 ± 42.2", "unit": "µg/mL"}, {"measurement": "concentration at 4 hr", "setting": "[2]; [4]", "value": "314 ± 11.2", "unit": "µg/mL"}, {"measurement": "concentration at 8 hr", "setting": "[2]; [4]", "value": "267 ± 38.4", "unit": "µg/mL"}, {"measurement": "concentration at 24 hr", "setting": "[2]; [4]", "value": "47.2 ± 19.9", "unit": "µg/mL"}, {"measurement": "AUC(0-t)", "setting": "[2]; [4]", "value": "4530 ± 269", "unit": "µg·h/mL"}, {"measurement": "Cmax", "setting": "[2]; male, CD (SD), plasma, po, 300 mg/kg, 300 mg/kg, read-out: Cmax", "value": "316 ± 11.4", "unit": "µg/mL"}, {"measurement": "Tmax", "setting": "[2]; male, CD (SD), plasma, po, 300 mg/kg, 300 mg/kg, read-out: Tmax", "value": "3.5 ± 1", "unit": "h"}, {"measurement": "Unchanged compound level in blood plasma 0.25 hr", "setting": "[2]; 30 mg/kg", "value": "12.45 ± 3.94", "unit": "µg/mL"}, {"measurement": "Unchanged compound level in blood plasma 0.5 hr", "setting": "[2]; 30 mg/kg", "value": "27.41 ± 4.71", "unit": "µg/mL"}, {"measurement": "Unchanged compound level in blood plasma 1 hr", "setting": "[2]; 30 mg/kg", "value": "37.38 ± 2.85", "unit": "µg/mL"}, {"measurement": "Unchanged compound level in blood plasma 2 hr", "setting": "[2]; 30 mg/kg", "value": "38.54 ± 0.91", "unit": "µg/mL"}, {"measurement": "Unchanged compound level in blood plasma 4 hr", "setting": "[2]; 30 mg/kg", "value": "23.23 ± 3.08", "unit": "µg/mL"}, {"measurement": "Unchanged compound level in blood plasma 8 hr", "setting": "[2]; 30 mg/kg", "value": "19.23 ± 2.51", "unit": "µg/mL"}, {"measurement": "Unchanged compound level in blood plasma 24 hr", "setting": "[2]; 30 mg/kg", "value": "1.35 ± 0.73", "unit": "µg/mL"}, {"measurement": "AUC0-24 hr", "setting": "[2]; 30 mg/kg", "value": "371.97 ± 34.08", "unit": "µg·h/mL"}, {"measurement": "Cmax", "setting": "[2]; 30 mg/kg", "value": "39.03 ± 0.43", "unit": "µg/mL"}, {"measurement": "Tmax", "setting": "[2]; 30 mg/kg", "value": "1.50 ± 0.58", "unit": "h"}, {"measurement": "Unchanged compound level in blood plasma 0.25 hr", "setting": "[2]; 300 mg/kg", "value": "39.18 ± 4.61", "unit": "µg/mL"}, {"measurement": "Unchanged compound level in blood plasma 0.5 hr", "setting": "[2]; 300 mg/kg", "value": "79.93 ± 13.24", "unit": "µg/mL"}]}
